Assay results from patent EP3650451A1, “COMPOUNDS AND THEIR USES AS FLUORESCENT PROBES” (Consejo Superior de Investigaciones Cientificas, priority 2017, dated 2019).

System: SCC38 cells
Assay: Labeling in the presence of FCCP (depolarized mitochondrial membrane), flow cytometry
Type: cell-based, human
Description: • Fig. 1. In vivo labeling of SCC38 cells with compound 4 at different concentrations (50, 100 and 500 nM). Scale bar: 10 µm • Fig. 2. Flow cytometry studies in SCC38 and HeLa cell lines labeled with compound 4 and Mito Tracker® Red. Histograms wherein fluorescence intensity vs number of events is represented for each of the staining times (5, 15 and 30 min) and control (Ctrl), for the SCC38 and HeLa cells and for each of the two markers. • Fig. 3. Absorption (A) and fluorescence (B) spectra, normalized to molar absorption and fluorescence quantum yield of probe 4 in different solvents; chloroform (green), acetone (black), acetonitrile (red), ethanol (blue) and water (gray). • Fig. 4. […] (A) Flow cytometry analysis of SCC38 cells incubated in the presence (+FCCP) or absence (-FCCP) of FCCP 60 µM for 3 h before staining with 20 nM of 4 or 0.5 nm of MitoTracker. The data represent the mean fluorescence intensity (MFI) of the stained cells. (B) Microscopy analysis of SCC38 cells pretreated or not with FCCP before co-staining with 20 nM of 4 and 0.5 nm of MitoTracker. The graphs show the fluorescence profiles of the regions of interest indicated with white lines in the right-hand panels. Scale bars: 10 µm). • Fig. 5. […] The data represent the mean fluorescence intensity (MFI) of the stained cells (upper panels) and representative images of the cytometry profiles (lower panels). • Fig. 7. […] (B) The data represent the mean fluorescence intensity (MFI) of the labeled cells.
The labeling was analyzed by flow cytometry in the presence of carbonyl cyanide-p-(trifluoromethoxy)phenylhydrazone (FCCP), a protonophore used to reduce the mitochondrial membrane potential (ΔΨm) through depolarization of the mitochondrial membrane. […] Indeed, the suppression of dye-mitochondria electrostatic attraction as a passive labeling mechanism reduces the concentration of the dye in the cell organelle and, thus, the probability and extent of the fluorescence deactivation processes, with the ensuing increase in their efficiency. […]

`CC1=CC(C)=[N+]2C1=C(c1c(C)cc(C)cc1C)c1c(C)cc(C)n1[B-]21OC(=O)C[C@H](C[N+](C)(C)C)O1` (some centres unmarked) [Compound 4] was tested. Which “labeling of depolarized mitochondria” value (60 µM FCCP for 3 h at 37 °C) did it give?
The value was “capable of labeling depolarized mitochondria”.

And the “mitochondrial fluorescence of cells treated with FCCP” value (60 µM FCCP for 3 h at 37 °C before staining, 20 nM of 4 or 0.5 nM of MitoTracker)?
The value was “increase in fluorescence”.
